Reference: patent publication US20140031389A1, “SCREENING METHODS AND PHARMACEUTICAL COMPOSITIONS FOR THE TREATMENT OF INFLAMMATORY BOWEL DISEASES” (INSERM (INSTITUT NATIONAL DE LA SANTE ET DE LA RECHERCHE …, priority 2011, published 2014)

What was measured:
IL10/Nox1^dKO mice = experiment: Salubrinal treatment of spontaneous colitis in IL10/Nox1^dKO mice; assay type: in vivo
Excerpt: All SPF-reared C57B1/6-IL10/Nox1^dKO mice developed spontaneously colitis at 6/7 weeks and disease activity index (DAI) scores which became more severe with age, including diarrhea, high incidence of rectal bleeding, change in body and colon weights, and prolapses. None of WT and single-KO mice developed colitis during the time frame studied. […] We next measured epithelial permeability of FITC-dextran in segments of distal colon and indigenous bacterial translocation was identified in the spleen of 7 and 12-week-old mice. […] Consistent with previous findings in patients with UC^30,31, IL10/Nox1^dKO mice expressed almost 50% of microRNAs relevant in defining UC signature.
(§1) To assess the pathogenic role of goblet cells in UC, WT and Nox1^KO mice were subjected to oral administration of DSS or rectal administration of TNBS. […] IRE1beta and ATF6alpha branch signaling were extended in colonic epithelial cells as evidenced by the increased XBP-1 mRNA splicing, the induction of GRP78, GRP94, PDI at both mRNA and protein levels, and dilated cisternae and gross distortion of the ER in goblet cells. […] Consistent with reduced eIF2α phosphorylation, increased expression of PPP1R15A/GADD34, a stress-inducible protein that recruits the catalytic subunit of protein phosphatase 1 and promotes elF2alpha dephosphorylation, was detected in agreement with our previous data in humans^1. EIF2alpha phosphorylation is cytoprotective during ERS, because cells are sensitized to cell death when this pathway is genetically ablated^33 and protected when it is ectopically enforced^34. To test whether a selective pharmacological inhibitor of GADD34-mediated elF2alpha dephosphorylation may alleviate colitis, IL10/Nox1^dKO mice were treated with 1 mg/kg salubrinal^35 for up to three weeks.

[1] = tested on: GADD34-mediated elF2alpha dephosphorylation; experiment: elF2alpha phosphorylation and ER stress markers in colonic mucosa of salubrinal-treated IL10/Nox1^dKO mice; assay type: in vivo
Excerpt: as §1

[2] = IL10/Nox1^dKO mice, 1 mg/kg salubrinal for up to three weeks
[3] = salubrinal-treated IL10/Nox1^dKO mice, 1 mg/kg for up to three weeks

**Q.** `O=C(/C=C/c1ccccc1)NC(NC(=S)Nc1cccc2cccnc12)C(Cl)(Cl)Cl` (stereo not drawn) [salubrinal, 3-phenyl-N-[2,2,2-trichloro-1-[[(8-quinolinylamino)thioxomethyl]amino]ethyl]-2-propenamide] was tested. Which “histological colitis score throughout the colon” value (IL10/Nox1^dKO mice; [2]) did it give?
**A.** Its value is “strongly reduced”.

**Q.** And the immune cell infiltration (IL10/Nox1^dKO mice; [2])?
**A.** The immune cell infiltration was “markedly prevented”.

**Q.** What about the “mucosal architecture and goblet cells” value (IL10/Nox1^dKO mice; [2]) of the same compound?
**A.** The value was “restored intact mucosal architecture with normal goblet cells”.

**Q.** What about the “apoptosis of colonic mucosa” value (IL10/Nox1^dKO mice; IL10/Nox1^dKO mice, 1 mg/kg salubrinal for up to three weeks, anti-apoptotic activity on CHOP expression) of the same compound?
**A.** The value was “protected colonic mucosa against apoptosis”.

**Q.** What about the “amount of colonic and splenic Treg cells” value (IL10/Nox1^dKO mice; [3]) of the same compound?
**A.** Its value is “strongly decreased to baseline”.

**Q.** And the “levels of proinflammatory cytokines” value (IL10/Nox1^dKO mice; [3])?
**A.** Its value is “strongly decreased to baseline”.

**Q.** And the elF2alpha phosphorylation ([1]; colonic mucosa, IL10/Nox1^dKO mice, 1 mg/kg salubrinal for up to three weeks)?
**A.** The elF2alpha phosphorylation was “robust elF2alpha phosphorylation”.

**Q.** What about the “Grp78/Bip and Grp94 expression” value [1, 3] of the same compound?
**A.** The value was “trend toward reduced”.

**Q.** And the “localisation of salubrinal-induced phosphorylation of elF2alpha” value [1, 3]?
**A.** Its value is “mainly detected in colonic epithelial cells”.
